In patent US20090053278A1, “ANTI-MICROBIAL COMPOSITIONS AND DEVICES AND METHODS OF USING THE SAME” (priority 2006, published 2009):
Values after ≈ are worked out from the molar mass of the structure shown. Where a SMILES comes first, the peptide text is derived from it.

Tests used:
[1] = tested on: Staphylococcus epidermididis (RP62A; "Christensen Strain"); assay: Planktonic MIC, MBEC device, 24 hour exposure; type: cell-based, Staphylococcus epidermidis; conditions: S. epidermidis, 10% MHB in PBS
Description: (§1) The procedure provided describes an assay for testing 2 organisms (S. epidermidis and S. aureus) grown as a biofilm against 2 antimicrobial agents (gentamicin and an eCAP peptide) using a 96 well microtitre plate. The procedure will allow one to compare the MIC and MBEC values for each organism against each antimicrobial agent and against each other.
(§2) Microorganisms used were Staphylococcus epidermididis (RP62A; “Christensen Strain”) and Staphylococcus aureus (University of Calgary clinical isolate, strain 2645).
(§3) One set of test panels as shown above was prepared for each organism to determine the MIC and MBEC after a 24 hour exposure to each test material. SC wells are sterility controls for each experiment. GC is the growth control for each row. The working solution of gentamicin was 3 μmol/ml and 1 μmol/ml for eCAP. No SEM samples were taken for analysis due to test material shortage.
A working solution of eCAP or Gentamicin (1 μMoles/mL and 3 μMoles/mL respectively) was made in 10% MHB in sterile PBS. 200 μl of 10% MHB was added to ‘column’ 12 to serve as sterility controls (SC) and growth controls (GC) for each organism. 100 μl of 10% MHB was added to ‘columns’ 2 to 11. 200 μl of the appropriate working solution was added to ‘column’ 1 of the microtitre plate. 100 μl of the appropriate working solution was added to ‘column’ 2 and ‘column’ 3 of the microtitre plate. Using the multichannel micropipette, the contents of ‘column’ 3 was mixed by pipetting up and down. After mixing, 100 μl was transferred from the wells in ‘column’ 3 to the corresponding wells in ‘column’ 4. […]
Determination of Planktonic MIC: The challenge plate was incubated at 37° C. for 24 hours and read using a plate reader to determine MIC values. The MIC (minimum inhibitory concentration) was determined for compound eCAP/gentamicin for each organism shed from the biofilm during the challenge incubation. […]
(§4) Therefore, 10% MHB was used as a diluent instead of TSB. […] The MIC and MBEC values were determined as the dilution immediately before the concentration where growth was first observed, as depicted in Table 9 below.

[2] = antimicrobial activity retained after sterilization
Description: In a useful embodiment of the present invention, the antimicrobial peptides may retain antibacterial activity after a device coated with the antimicrobial peptide is sterilized.

Enterococcis faecalis = assay: in-vitro assay of peptide-coated plastic endodontic obturators; type: cell-based; conditions: peptide immobilized on plastic obturators; data not shown
Description: Medical standard plastic endodontic obturators were coated with an antimicrobial peptide. […] The obturators were coated with a tie layer. A parylene coating containing a reactive molecule specific for the N-terminus region of the peptide (“Photopolymer”) was then applied over the tie layer. The peptide WLBU-2 (SEQ ID NO. 179) was applied to the parylene coating and exposed to UV light to facilitate covalent bonding of the peptide with the parylene coating. Non-coated obturators were used as controls. All samples and controls were subjected to ethylene oxide sterilization. The coated samples were placed in 75% relative humidity overnight.

[3] = tested on: Staphylococcus epidermididis (RP62A; "Christensen Strain") grown as a biofilm; assay: MBEC of biofilm, MBEC device, 24 hour exposure; type: cell-based, Staphylococcus epidermidis; conditions: S. epidermidis biofilm, 10% MHB in PBS, listed as eCAP sterilized by ethylene oxide
Description: as §1, §2
as §3, with “shortage. […]” for “shortage.”
(§5) Recovery of Surviving Biofilm: Rinse plate(s) of 0.9% sterile saline (200 μL per well) were prepared in a sterile 96 well micro titre plate. […] The recovery plates were incubated at 37° C. for 24 hours and read using the plate ready to determine MBEC values.
as §4

[4] = tested on: Staphylococcus aureus (University of Calgary clinical isolate, strain 2645) grown as a biofilm; assay: MBEC of biofilm, MBEC device, 24 hour exposure; type: cell-based; conditions: S. aureus biofilm, 10% MHB in PBS
Description: as §1, §2, §3
A working solution of eCAP or Gentamicin (1 μMoles/mL and 3 μMoles/mL respectively) was made in 10% MHB in sterile PBS. 200 μl of 10% MHB was added to ‘column’ 12 to serve as sterility controls (SC) and growth controls (GC) for each organism. 100 μl of 10% MHB was added to ‘columns’ 2 to 11. 200 μl of the appropriate working solution was added to ‘column’ 1 of the microtitre plate. 100 μl of the appropriate working solution was added to ‘column’ 2 and ‘column’ 3 of the microtitre plate. Using the multichannel micropipette, the contents of ‘column’ 3 was mixed by pipetting up and down. After mixing, 100 μl was transferred from the wells in ‘column’ 3 to the corresponding wells in ‘column’ 4. This was repeated until reaching […]. Using a pipet, 100 μl from each well in ‘column’ 11 was ejected. 100 μl of growth media was then added to all wells except A1 to H1, A2 to H2, and A12 to H12.
Antimicrobial Challenge of Biofilm: Rinse plate(s) of saline (200 μL per well) were prepared. Planktonic cells from biofilm that had formed on the lid of the MBEC device were rinsed by dipping the lid into the saline for 1-2 minutes. The lid was transferred to the challenge plate and incubated at 37° C. for 24 hours on a gyrating platform set at approximately 150 rpm.
as §5, with “plate. Pegs were rinsed in 0.9% sterile saline for 1 to 2 minutes.” for “plate.”
as §4

[5] = listed as eCAP sterilized by ethylene oxide

CC(C)[C@H](NC(=O)[C@H](Cc1c[nH]c2ccccc12)NC(=O)[C@H](CCCNC(=N)N)NC(=O)[C@H](CCCNC(=N)N)NC(=O)[C@@H](NC(=O)[C@@H](NC(=O)[C@H](CCCNC(=N)N)NC(=O)[C@@H](NC(=O)[C@@H](NC(=O)[C@H](CCCNC(=N)N)NC(=O)[C@H](CCCNC(=N)N)NC(=O)[C@H](Cc1c[nH]c2ccccc12)NC(=O)[C@@H](NC(=O)[C@H](CCCNC(=N)N)NC(=O)[C@H](CCCNC(=N)N)NC(=O)[C@@H](NC(=O)[C@H](CCCNC(=N)N)NC(=O)[C@H](CCCNC(=N)N)NC(=O)[C@@H](NC(=O)[C@H](Cc1c[nH]c2ccccc12)NC(=O)[C@H](CCCNC(=N)N)NC(=O)[C@@H](N)CCCNC(=N)N)C(C)C)C(C)C)C(C)C)C(C)C)C(C)C)C(C)C)C(C)C)C(=O)N[C@@H](CCCNC(=N)N)C(=O)N[C@@H](CCCNC(=N)N)C(=O)O [WLBU-2, RRWVRRVRRVWRRVVRVVRRWVRR] (H-RRWVRRVRRVWRRVVRVVRRWVRR-OH; N-terminus and C-terminus assumed)
MIC ([1]; listed as eCAP): 3.9 µM (≈ 13.3 µg/mL)
effect of sterilization methods on antimicrobial activity ([2]; high and low dose gamma radiated and ethylene oxide, MIC/MBEC against S. aureus and S. epidermidis): not detrimental to its antimicrobial activity
antimicrobial activity after ethylene oxide sterilization ([2]; peptide coated on a substrate): retained antimicrobial activity
efficacy against Enterococcis faecalis of immobilized peptide (Enterococcis faecalis): efficacy against Enterococcis faecalis

CC(C)[C@H](NC(=O)[C@H](Cc1c[nH]c2ccccc12)NC(=O)[C@H](CCCNC(=N)N)NC(=O)[C@H](CCCNC(=N)N)NC(=O)[C@@H](NC(=O)[C@@H](NC(=O)[C@H](CCCNC(=N)N)NC(=O)[C@@H](NC(=O)[C@@H](NC(=O)[C@H](CCCNC(=N)N)NC(=O)[C@H](CCCNC(=N)N)NC(=O)[C@H](Cc1c[nH]c2ccccc12)NC(=O)[C@@H](NC(=O)[C@H](CCCNC(=N)N)NC(=O)[C@H](CCCNC(=N)N)NC(=O)[C@@H](NC(=O)[C@H](CCCNC(=N)N)NC(=O)[C@H](CCCNC(=N)N)NC(=O)[C@@H](NC(=O)[C@H](Cc1c[nH]c2ccccc12)NC(=O)[C@H](CCCNC(=N)N)NC(=O)[C@@H](N)CCCNC(=N)N)C(C)C)C(C)C)C(C)C)C(C)C)C(C)C)C(C)C)C(C)C)C(=O)N[C@@H](CCCNC(=N)N)C(=O)N[C@@H](CCCNC(=N)N)C(=O)O [Ethylene oxide eCAP] (H-RRWVRRVRRVWRRVVRVVRRWVRR-OH; N-terminus and C-terminus assumed)
MIC [1, 5]: 3.9 µM (≈ 13.3 µg/mL)
MBEC [3]: 0.0078 µmol/mL
MBEC [4, 5]: approximately 0.0039 μmol/ml

CC(C)[C@H](NC(=O)[C@H](Cc1c[nH]c2ccccc12)NC(=O)[C@H](CCCNC(=N)N)NC(=O)[C@H](CCCNC(=N)N)NC(=O)[C@@H](NC(=O)[C@@H](NC(=O)[C@H](CCCNC(=N)N)NC(=O)[C@@H](NC(=O)[C@@H](NC(=O)[C@H](CCCNC(=N)N)NC(=O)[C@H](CCCNC(=N)N)NC(=O)[C@H](Cc1c[nH]c2ccccc12)NC(=O)[C@@H](NC(=O)[C@H](CCCNC(=N)N)NC(=O)[C@H](CCCNC(=N)N)NC(=O)[C@@H](NC(=O)[C@H](CCCNC(=N)N)NC(=O)[C@H](CCCNC(=N)N)NC(=O)[C@@H](NC(=O)[C@H](Cc1c[nH]c2ccccc12)NC(=O)[C@H](CCCNC(=N)N)NC(=O)[C@@H](N)CCCNC(=N)N)C(C)C)C(C)C)C(C)C)C(C)C)C(C)C)C(C)C)C(C)C)C(=O)N[C@@H](CCCNC(=N)N)C(=O)N[C@@H](CCCNC(=N)N)C(=O)O [High dose Irradiated eCAP] (H-RRWVRRVRRVWRRVVRVVRRWVRR-OH; N-terminus and C-terminus assumed)
MBEC ([4]; listed as eCAP sterilized by high dose irradiation): approximately 0.016 μmol/ml

CC(C)[C@H](NC(=O)[C@H](Cc1c[nH]c2ccccc12)NC(=O)[C@H](CCCNC(=N)N)NC(=O)[C@H](CCCNC(=N)N)NC(=O)[C@@H](NC(=O)[C@@H](NC(=O)[C@H](CCCNC(=N)N)NC(=O)[C@@H](NC(=O)[C@@H](NC(=O)[C@H](CCCNC(=N)N)NC(=O)[C@H](CCCNC(=N)N)NC(=O)[C@H](Cc1c[nH]c2ccccc12)NC(=O)[C@@H](NC(=O)[C@H](CCCNC(=N)N)NC(=O)[C@H](CCCNC(=N)N)NC(=O)[C@@H](NC(=O)[C@H](CCCNC(=N)N)NC(=O)[C@H](CCCNC(=N)N)NC(=O)[C@@H](NC(=O)[C@H](Cc1c[nH]c2ccccc12)NC(=O)[C@H](CCCNC(=N)N)NC(=O)[C@@H](N)CCCNC(=N)N)C(C)C)C(C)C)C(C)C)C(C)C)C(C)C)C(C)C)C(C)C)C(=O)N[C@@H](CCCNC(=N)N)C(=O)N[C@@H](CCCNC(=N)N)C(=O)O [Low dose irradiated eCAP] (H-RRWVRRVRRVWRRVVRVVRRWVRR-OH; N-terminus and C-terminus assumed)
MBEC ([4]; listed as eCAP sterilized by low dose irradiation): approximately 0.063 μmol/ml

Gentamicin [reference compound]
MIC [1]: 1500 µM
MBEC [4]: 1.5 µmol/mL
